Results from patent US8063077B2, “Factor Xa inhibitors” (Millennium Pharmaceuticals, Inc., priority 2006, dated 2011).
pIC50: −log10 of the molar value.

Each compound was assayed against T1, human plasma protein factor Xa (Homo sapiens, UniProt P00742) (assay: Factor Xa IC50 determination, cleavage of paranitroanilide substrate S-2765). Conditions: factor Xa 1 nM, S2765 100 μM, Tris buffered saline pH 7.4, 5% DMSO.
T1 construct: The human plasma protein factor Xa was purchased from Haematologic Technologies; purchased Haematologic Technologies (Essex Junction, Vt.); host or cells: human plasma
Type: biochemical
Source text: This example illustrates methods for evaluating the compounds of the invention, along with results obtained for such assays. The in vitro and in vivo human Factor Xa activities of the inventive compounds can be determined by various procedures known in the art, such as a test for their ability to inhibit the activity of human plasma Factor Xa. […] The IC50 value is the concentration (in nM) of the compound required to provide 50% inhibition of human Factor Xa proteolytic activity.
An in vitro assay for detecting and measuring inhibition activity against Factor Xa is as follows:
The substrate S-2765 (Z-D-Arg-Gly-Arg-pNA•HCl) was obtained from Diapharma (West Chester, Ohio).
The human plasma protein factor Xa was purchased from Haematologic Technologies (Essex Junction, Vt.).
All assays, which are performed in 96-well microtiter plates, measure proteolytic activity of the enzyme (factor Xa) by following cleavage of a paranitroanilide peptide substrate. The assay buffer used for proteolytic assays was Tris buffered saline (20 mM Tris, 150 mM NaCl, 5 mM CaCl2, 0.1% Bovine serum albumin (BSA), 5% Dimethly Sulfoxide (DMSO) pH 7.4). In a 96-well microtiter plate, inhibitor was serially diluted to give a range of final concentrations from 0.01 nM to 10 μM. Duplicate sets of wells were assayed and control wells without inhibitor were included. Enzyme was added to each well, (factor Xa concentration=1 nM), the plate was shaken for 5 seconds and then incubated for 5 minutes at room temperature. S2765 was added (100 μM final) and the plate was shaken for 5 seconds (final volume in each well was 200 μl). The degree of substrate hydrolysis was measured at 405 nm on a Thermomax plate reader (Molecular Devices, Sunnyvale, Calif.) for 2 minutes. The initial velocities of substrate cleavage (mOD/min), for each range of inhibitor concentrations, were fitted to a four parameter equation using Softmax data analysis software. The parameter C, derived from the resulting curve-fit, corresponded to the concentration for half maximal inhibition (IC50).

T1 sequence (P00742 235-488 limits assumed): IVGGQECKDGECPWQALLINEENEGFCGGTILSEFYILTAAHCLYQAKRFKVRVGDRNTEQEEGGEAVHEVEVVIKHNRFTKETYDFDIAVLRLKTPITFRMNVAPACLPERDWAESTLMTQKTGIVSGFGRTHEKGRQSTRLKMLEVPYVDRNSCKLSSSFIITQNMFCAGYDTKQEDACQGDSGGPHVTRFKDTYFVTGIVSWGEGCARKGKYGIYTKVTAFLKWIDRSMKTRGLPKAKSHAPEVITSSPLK
T1 sequence (P00742 41-179 partner limits assumed): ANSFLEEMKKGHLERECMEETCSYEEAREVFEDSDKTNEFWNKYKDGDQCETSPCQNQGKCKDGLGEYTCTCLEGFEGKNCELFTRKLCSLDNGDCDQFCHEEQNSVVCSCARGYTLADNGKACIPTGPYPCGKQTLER

Structure (SMILES)	pIC50
O=C(NCc1cn(-c2ccc(-n3ccccc3=O)cc2)cn1)c1ccc2[nH]ccc2c1 [Compound 54, N-((1-(4-(2-oxopyridin-1(2H)-yl)phenyl)-1H-imidazol-4-yl)methyl)-1H-indole-5-carboxamide]	≤ 6.30
O=C(NCc1cn(-c2ccc(N3CCS(=O)(=O)CC3=O)cc2)cn1)c1ccc(Cl)s1 [Compound 16, 5-Chloro-N-((1-(4-(1,1-dioxo-3-oxothiomorpholino)phenyl)-1H-imidazol-4-yl)methyl)thiophene-2-carboxamide]	≤ 6.30
O=C(NCc1cn(-c2ccc(N3CCCCC3=O)cc2)cn1)c1ccc(Cl)s1 [Compound 52, 5-chloro-N-((1-(4-(2-oxopiperidin-1-yl)phenyl)-1H-imidazol-4-yl)methyl)thiophene-2-carboxamide]	≥ 7.00
O=C1CN(c2cc(-n3ccccc3=O)ccc2-n2cnc(CNC(=O)c3ccc(Cl)s3)c2)CCN1 [Compound 26, 5-Chloro-N-((1-(2-(3-oxopiperazin-1-yl)-4-(2-oxopyridin-1(2H)-yl)phenyl)-1H-imidazol-4-yl)methyl)thiophene-2-carboxamide]	≥ 7.00
C[S+]([O-])c1nc(CNC(=O)c2ccc(Cl)s2)cn1-c1ccc(-n2cc(F)ccc2=O)cc1 (stereo not shown) [Compound 64, 5-chloro-N-((1-(4-(5-fluoro-2-oxopyridin-1(2H)-yl)phenyl)-2-(methylsulfinyl)-1H-imidazol-4-yl)methyl)thiophene-2-carboxamide]	≥ 7.00
C/N=c1\ccccn1-c1ccc(-n2cnc(CNC(=O)c3ccc(Cl)s3)c2)cc1 [Compound 34, (E)-5-chloro-N-((1-(4-(2-(methylimino)pyridin-1(2H)-yl)phenyl)-1H-imidazol-4-yl)methyl)thiophene-2-carboxamide]	≥ 7.00
O=C(NCc1cn(-c2ccc(-n3ccccc3=O)cc2F)cn1)c1ccc(Cl)s1 [Compound 21, 5-Chloro-N-((1-(2-fluoro-4-(2-oxopyridin-1(2H)-yl)phenyl)-1H-imidazol-4-yl)methyl)thiophene-2-carboxamide]	≥ 7.00

Continued, values first:

pIC50	Structure (SMILES)
≥ 7.00	C[S+]([O-])c1nc(CNC(=O)c2ccc(Cl)s2)cn1-c1ccc(-n2ccccc2=O)cc1 (stereo not shown) [Compound 57, 5-chloro-N-((2-(methylsulfinyl)-1-(4-(2-oxopyridin-1(2H)-yl)phenyl)-1H-imidazol-4-yl)methyl)thiophene-2-carboxamide]
≥ 7.00	O=C(NCc1cn(-c2ccc(-n3ccccc3=O)cc2N2CCS(=O)(=O)CC2)cn1)c1ccc(Cl)s1 [Compound 25, 5-Chloro-N-((1-(4-(2-oxopyridin-1(2H)-yl)-2-(1,1-dioxo-thiomorpholin-4-yl)phenyl)-1H-imidazol-4-yl)methyl)thiophene-2-carboxamide]
≥ 7.00	CC(=O)Nc1ccn(-c2ccc(-n3cnc(CNC(=O)c4ccc(Cl)s4)c3)cc2)c(=O)n1 [Compound 51, N-((1-(4-(4-acetamido-2-oxopyrimidin-1(2H)-yl)phenyl)-1H-imidazol-4-yl)methyl)-5-chlorothiophene-2-carboxamide]
≥ 7.00	C[S+]([O-])c1nc(CNC(=O)c2ccc(Cl)s2)cn1-c1ccc(-n2cccc(F)c2=O)cc1 (stereo not shown) [Compound 66, 5-chloro-N-((1-(4-(3-fluoro-2-oxopyridin-1(2H)-yl)phenyl)-2-(methylsulfinyl)-1H-imidazol-4-yl)methyl)thiophene-2-carboxamide]
≥ 7.00	COc1ccc(/N=c2\ccccn2-c2ccc(-n3cnc(CNC(=O)c4ccc(Cl)s4)c3)cc2)cc1 [Compound 35, (E)-5-chloro-N-((1-(4-(2-(4-methoxyphenylimino)pyridin-1(2H)-yl)phenyl)-1H-imidazol-4-yl)methyl)thiophene-2-carboxamide]
≥ 7.00	O=C(NCc1cn(-c2ccc(-n3ccccc3=O)c(F)c2)cn1)c1ccc(Cl)s1 [Compound 40, 5-chloro-N-((1-(3-fluoro-4-(2-oxopyridin-1(2H)-yl)phenyl)-1H-imidazol-4-yl)methyl)thiophene-2-carboxamide]
